Patent publication US20250129135A1, “Multi-Agonist and Use Thereof” (priority 2021, published 2025)
Starred links: 1 amine or outer side, 2 acyl side, 3 side chain; linkers in the order of their positions; H or OH if unused. Non-standard residues stand in square brackets, D forms with d. Residues, ends and D or L forms follow the SMILES beside them. Groups on a side chain read outwards from the residue. *: point of attachment. C20 diacid = O=C(O)CCCCCCCCCCCCCCCCCCC(=O)*; γGlu = O=C(O)[C@H](CCC(=O)[*:2])N[*:1]; αMeF = C[C@](N)(Cc1ccccc1)C(=O)O; αMeL = CC(C)C[C@](C)(N)C(=O)O; AEEA = NCCOCCOCC(=O)O; Ac3c = NC1(C(=O)O)CC1; Aib = CC(C)(N)C(=O)O

Experiments:
3T3-L1 adipocytes = details: for Rel. A (Relative Activity) on 3T3-L1 adipocyte: relative to GIP
How it was run: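 Mouse 3T3-L1 preadipocytes were differentiated with IBMX, dexamethasone and insulin for 5 days, then insulin plus 10 uM rosiglitazone for 3 days, then 10% FBS medium for 2–3 days. Mature adipocytes received 10-point, 3-fold compound dilutions for 60 min at room temperature. cAMP was read by kit detection reagent after a further 60 min, with concentration-effect curves fitted.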

[1] = tested on: human primary liver cells; format: cell-based; details: for Rel. A (Relative Activity) on human primary liver cells: relative to GCG
How it was run: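 Human primary hepatocytes, thawed at 37° C and resuspended in HBSS, exposed to compound for 60 min at room temperature. Detection reagent then added for 60 min before cAMP readout.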

Human GLP-1R = Human GLP-1R (Homo sapiens, UniProt P43220); assay: cAMP (HTRF) activity in HEK-293 cells stably overexpressing human GLP-1 receptor; format: cell-based; parameters: expressed in transfected cells; host or cells: HEK-293; details: for Human GLP-1R Rel. A (Relative Activity): EC50 of human GLP-1 (7-37) / EC50 of compound; for EC50: stable transfected cell cAMP activity, at least 3 independent tests
Sequence of Human GLP-1R (P43220 24-463): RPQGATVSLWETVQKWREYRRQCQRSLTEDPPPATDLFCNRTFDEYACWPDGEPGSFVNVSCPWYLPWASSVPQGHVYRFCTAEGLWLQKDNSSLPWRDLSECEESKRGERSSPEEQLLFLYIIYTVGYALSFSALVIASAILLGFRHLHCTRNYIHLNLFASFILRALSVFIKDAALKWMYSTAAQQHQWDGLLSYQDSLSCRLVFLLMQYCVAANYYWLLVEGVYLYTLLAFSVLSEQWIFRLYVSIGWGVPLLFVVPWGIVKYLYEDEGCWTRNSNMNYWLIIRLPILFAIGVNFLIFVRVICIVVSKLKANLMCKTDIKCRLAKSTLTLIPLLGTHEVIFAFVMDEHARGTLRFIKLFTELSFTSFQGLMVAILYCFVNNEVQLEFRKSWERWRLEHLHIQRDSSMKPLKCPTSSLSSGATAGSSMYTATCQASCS
How it was run: (§1)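 Cells in HBSS are exposed to compound for 60 min at room temperature, followed by 60 min with detection reagent. EC50 (nM) is taken from concentration-response curves.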

RIN-m5F cells = format: cell-based, rat; details: for Rel. A (Relative Activity) on RIN-m5F: relative to GLP-1(7-37)
How it was run: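 cAMP production measured in RIN-m5F cells resuspended in HBSS; compounds incubated 60 min at room temperature, then detection reagent added for a further 60 min before read-out.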

Human GIP R = molecular target: T1, Human GIP R (Homo sapiens, UniProt P48546); assay: cAMP (HTRF) activity in CHO cells stably overexpressing GIP receptor; format: cell-based; details: for Human GIP R Rel. A (Relative Activity): EC50 of human GIP / EC50 of compound; for EC50: stable transfected cell cAMP activity, at least 3 independent tests
T1 construct: expressed in transfected cells; host or cells: CHO
T1 sequence (P48546 22-466): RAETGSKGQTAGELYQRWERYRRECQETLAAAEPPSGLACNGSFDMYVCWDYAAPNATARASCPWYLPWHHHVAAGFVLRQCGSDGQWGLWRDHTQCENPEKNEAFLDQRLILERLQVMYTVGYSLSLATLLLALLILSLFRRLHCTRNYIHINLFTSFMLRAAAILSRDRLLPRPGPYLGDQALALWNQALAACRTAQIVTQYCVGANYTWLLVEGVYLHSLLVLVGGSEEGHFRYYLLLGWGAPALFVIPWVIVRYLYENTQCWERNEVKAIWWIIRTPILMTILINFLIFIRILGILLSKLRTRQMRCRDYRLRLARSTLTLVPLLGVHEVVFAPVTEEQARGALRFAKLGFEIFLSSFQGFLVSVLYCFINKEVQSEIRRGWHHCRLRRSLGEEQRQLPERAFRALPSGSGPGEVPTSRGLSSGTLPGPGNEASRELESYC
How it was run: as §1

Human GCG R = molecular target: T2, Human GCG R (Homo sapiens, UniProt P47871); assay: cAMP (HTRF) activity in HEK-293 cells stably overexpressing human GCG receptor; format: cell-based; details: EC50 of human GCG / EC50 of compound
T2 construct: expressed in transfected cells; host or cells: HEK-293
T2 sequence (P47871 26-477): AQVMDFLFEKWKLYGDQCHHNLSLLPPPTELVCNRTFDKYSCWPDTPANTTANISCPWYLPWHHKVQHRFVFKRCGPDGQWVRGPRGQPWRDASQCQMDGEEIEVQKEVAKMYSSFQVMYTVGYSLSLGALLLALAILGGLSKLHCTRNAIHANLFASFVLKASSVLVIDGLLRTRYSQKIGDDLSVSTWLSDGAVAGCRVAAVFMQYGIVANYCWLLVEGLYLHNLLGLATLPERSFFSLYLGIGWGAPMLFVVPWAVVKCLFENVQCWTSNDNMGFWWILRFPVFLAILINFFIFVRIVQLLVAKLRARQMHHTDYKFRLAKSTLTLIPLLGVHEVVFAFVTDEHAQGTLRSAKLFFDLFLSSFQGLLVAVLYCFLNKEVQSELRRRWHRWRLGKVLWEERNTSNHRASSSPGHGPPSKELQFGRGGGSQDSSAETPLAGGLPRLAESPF
How it was run: as §1

EC50 [1] [nM] | Human GLP-1R Rel. A (Relative Activity) (Human GLP-1R) [%] | EC50 (Human GLP-1R) [nM] | EC50 (RIN-m5F cells) [nM] | Human GIP R Rel. A (Relative Activity) (Human GIP R) [%] | Human GCG R Rel. A (Relative Activity) (Human GCG R) [%] | EC50 (Human GIP R) [nM] | Structure (SMILES) | EC50 (3T3-L1 adipocytes) [nM] | Rel. A (Relative Activity) on 3T3-L1 adipocyte (3T3-L1 adipocytes) [%] | Rel. A (Relative Activity) on human primary liver cells [1] [%] | Rel. A (Relative Activity) on RIN-m5F (RIN-m5F cells) [%]
1.36 | 488.89 | 0.009 | 0.359 | 258.57 | 11.52 |  | CC[C@H](C)[C@H](NC(=O)[C@H](Cc1ccccc1)NC(=O)[C@H](C)NC(=O)C(C)(C)NC(=O)[C@H](CCC(N)=O)NC(=O)[C@H](C)NC(=O)[C@H](CCCCNC(=O)COCCOCCNC(=O)COCCOCCNC(=O)CC[C@H](NC(=O)CCCCCCCCCCCCCCCCCCC(=O)O)C(=O)O)NC(=O)[C@H](CCCCN)NC(=O)[C@H](CC(=O)O)NC(=O)[C@H](CC(C)C)NC(=O)[C@H](CC(C)C)NC(=O)[C@@H](NC(=O)[C@H](CO)NC(=O)[C@H](Cc1ccc(O)cc1)NC(=O)[C@H](CC(=O)O)NC(=O)[C@H](CO)NC(=O)[C@@H](NC(=O)[C@](C)(Cc1ccccc1)NC(=O)[C@@H](NC(=O)CNC(=O)[C@H](CCC(N)=O)NC(=O)C(C)(C)NC(=O)[C@@H](N)Cc1ccc(O)cc1)[C@@H](C)O)[C@@H](C)O)[C@@H](C)CC)C(=O)N[C@@H](CCC(=O)O)C(=O)N[C@@H](Cc1ccccc1)C(=O)N[C@@H](CC(C)C)C(=O)N[C@@H](CC(C)C)C(=O)N[C@@H](CCC(=O)O)C(=O)N[C@@H](CO)C(=O)N[C@@H](Cc1c[nH]cn1)C(=O)N1CCC[C@H]1C(=O)N[C@@H](CO)C(=O)N[C@@H](CO)C(=O)NC(C)(C)C(=O)N[C@@H](Cc1c[nH]cn1)C(=O)N1CCC[C@H]1C(=O)N1CCC[C@H]1C(=O)NC1(C(=O)N[C@@H](CO)C(N)=O)CC1 [Compound 42] (H-Y[Aib]QGT[αMeF]TSDYSILLDKK([AEEA-AEEA-γGlu-C20 diacid])AQ[Aib]AFIEFLLESHPSS[Aib]HPP[Ac3c]S-NH2; N-terminus assumed) | 2.73 | 139.17 | 285.26 | 287.47
5.21 | 183.33 |  | 0.784 | 1645.45 | 37.01 | 0.011 | CC[C@H](C)[C@H](NC(=O)[C@H](Cc1ccccc1)NC(=O)[C@H](C)NC(=O)C(C)(C)NC(=O)[C@H](CCC(N)=O)NC(=O)[C@H](C)NC(=O)[C@H](CCCCNC(=O)COCCOCCNC(=O)COCCOCCNC(=O)CC[C@H](NC(=O)CCCCCCCCCCCCCCCCCCC(=O)O)C(=O)O)NC(=O)[C@H](CCCCN)NC(=O)[C@H](CC(=O)O)NC(=O)[C@H](CC(C)C)NC(=O)[C@](C)(CC(C)C)NC(=O)[C@@H](NC(=O)[C@H](CO)NC(=O)[C@H](Cc1ccc(O)cc1)NC(=O)[C@H](CC(=O)O)NC(=O)[C@H](CO)NC(=O)[C@@H](NC(=O)[C@](C)(Cc1ccccc1)NC(=O)[C@@H](NC(=O)CNC(=O)[C@H](CCC(N)=O)NC(=O)C(C)(C)NC(=O)[C@@H](N)Cc1ccc(O)cc1)[C@@H](C)O)[C@@H](C)O)[C@@H](C)CC)C(=O)N[C@@H](CCC(=O)O)C(=O)N[C@@H](Cc1ccccc1)C(=O)N[C@@H](CC(C)C)C(=O)N[C@@H](CC(C)C)C(=O)N[C@@H](CCC(=O)O)C(=O)N[C@@H](CO)C(=O)NC(C)(C)C(=O)N1CCC[C@H]1C(=O)N[C@@H](CO)C(=O)N[C@@H](CO)C(=O)NCC(=O)N[C@@H](C)C(=O)N1CCC[C@H]1C(=O)N1CCC[C@H]1C(=O)NC1(C(=O)N[C@@H](CO)C(N)=O)CC1 [Compound 28] (H-Y[Aib]QGT[αMeF]TSDYSI[αMeL]LDKK([AEEA-AEEA-γGlu-C20 diacid])AQ[Aib]AFIEFLLES[Aib]PSSGAPP[Ac3c]S-NH2) | 9.85 | 38.61 | 74.74 | 131.63
1.04 | 157.14 |  | 0.176 | 1206.67 | 69.51 | 0.015 | CC[C@H](C)[C@H](NC(=O)[C@H](Cc1ccccc1)NC(=O)[C@H](C)NC(=O)C(C)(C)NC(=O)[C@H](CCC(N)=O)NC(=O)[C@H](C)NC(=O)[C@H](CCCCNC(=O)COCCOCCNC(=O)COCCOCCNC(=O)CC[C@H](NC(=O)CCCCCCCCCCCCCCCCCCC(=O)O)C(=O)O)NC(=O)[C@H](CCCCN)NC(=O)[C@H](CC(=O)O)NC(=O)[C@H](CC(C)C)NC(=O)[C@](C)(CC(C)C)NC(=O)[C@@H](NC(=O)[C@H](CO)NC(=O)[C@H](Cc1ccc(O)cc1)NC(=O)[C@H](CC(=O)O)NC(=O)[C@H](CO)NC(=O)[C@@H](NC(=O)[C@](C)(Cc1ccccc1)NC(=O)[C@@H](NC(=O)CNC(=O)[C@H](CCC(N)=O)NC(=O)C(C)(C)NC(=O)[C@@H](N)Cc1ccc(O)cc1)[C@@H](C)O)[C@@H](C)O)[C@@H](C)CC)C(=O)N[C@@H](CCC(=O)O)C(=O)N[C@@H](Cc1ccccc1)C(=O)N[C@@H](CC(C)C)C(=O)N[C@@H](CC(C)C)C(=O)N[C@@H](CCC(=O)O)C(=O)NCC(=O)N[C@@H](CCCNC(=N)N)C(=O)N1CCC[C@H]1C(=O)N[C@@H](CO)C(=O)N[C@@H](CO)C(=O)NC(C)(C)C(=O)N[C@@H](Cc1c[nH]cn1)C(=O)N1CCC[C@H]1C(=O)N1CCC[C@H]1C(=O)N1CCC[C@H]1C(=O)N[C@@H](CO)C(N)=O [Compound 37] (H-Y[Aib]QGT[αMeF]TSDYSI[αMeL]LDKK([AEEA-AEEA-γGlu-C20 diacid])AQ[Aib]AFIEFLLEGRPSS[Aib]HPPPS-NH2; N-terminus assumed) | 2.49 | 152.87 | 373.06 | 586.36
2.37 | 169.23 | 0.026 | 0.624 | 724.00 | 24.57 | 0.025 | CC[C@H](C)[C@H](NC(=O)[C@H](Cc1ccccc1)NC(=O)[C@H](C)NC(=O)C(C)(C)NC(=O)[C@H](CCC(N)=O)NC(=O)[C@H](C)NC(=O)[C@H](CCCCNC(=O)COCCOCCNC(=O)COCCOCCNC(=O)CC[C@H](NC(=O)CCCCCCCCCCCCCCCCCCC(=O)O)C(=O)O)NC(=O)[C@H](CCCCN)NC(=O)[C@H](CC(=O)O)NC(=O)[C@H](CC(C)C)NC(=O)[C@](C)(CC(C)C)NC(=O)[C@@H](NC(=O)[C@H](CO)NC(=O)[C@H](Cc1ccc(O)cc1)NC(=O)[C@H](CC(=O)O)NC(=O)[C@H](CO)NC(=O)[C@@H](NC(=O)[C@](C)(Cc1ccccc1)NC(=O)[C@@H](NC(=O)CNC(=O)[C@H](CCC(N)=O)NC(=O)C(C)(C)NC(=O)[C@@H](N)Cc1ccc(O)cc1)[C@@H](C)O)[C@@H](C)O)[C@@H](C)CC)C(=O)N[C@@H](CCC(=O)O)C(=O)N[C@@H](Cc1ccc(O)cc1)C(=O)N[C@@H](CC(C)C)C(=O)N[C@@H](CC(C)C)C(=O)N[C@@H](CCC(=O)O)C(=O)N[C@H](C(=O)N[C@@H](Cc1c[nH]cn1)C(=O)N1CCC[C@H]1C(=O)N[C@@H](CO)C(=O)N[C@@H](CO)C(=O)NCC(=O)N[C@@H](C)C(=O)N1CCC[C@H]1C(=O)N1CCC[C@H]1C(=O)NC1(C(=O)N[C@@H](CO)C(N)=O)CC1)[C@@H](C)O [Compound 2] (H-Y[Aib]QGT[αMeF]TSDYSI[αMeL]LDKK([AEEA-AEEA-γGlu-C20 diacid])AQ[Aib]AFIEYLLETHPSSGAPP[Ac3c]S-NH2; N-terminus assumed) | 2.49 | 152.63 | 164.32 | 165.38
